In patent publication US20240116985A1, “STAPLED PEPTIDES AND METHODS THEREOF” (priority 2020, published 2024):
Where two headings read alike, the source gives them in different places.

Key:
[1] = biological target: T1, full-length beta-Catenin (Uniprot ID P35222) (Homo sapiens, UniProt P35222); experiment: Fluorescence polarization IC50 (beta-catenin / 5FAM-TCF4 10-53 competition); assay type: binding
T1 construct: 10 nM full-length beta-Catenin (Uniprot ID P35222)
T1 sequence (P35222 1-781): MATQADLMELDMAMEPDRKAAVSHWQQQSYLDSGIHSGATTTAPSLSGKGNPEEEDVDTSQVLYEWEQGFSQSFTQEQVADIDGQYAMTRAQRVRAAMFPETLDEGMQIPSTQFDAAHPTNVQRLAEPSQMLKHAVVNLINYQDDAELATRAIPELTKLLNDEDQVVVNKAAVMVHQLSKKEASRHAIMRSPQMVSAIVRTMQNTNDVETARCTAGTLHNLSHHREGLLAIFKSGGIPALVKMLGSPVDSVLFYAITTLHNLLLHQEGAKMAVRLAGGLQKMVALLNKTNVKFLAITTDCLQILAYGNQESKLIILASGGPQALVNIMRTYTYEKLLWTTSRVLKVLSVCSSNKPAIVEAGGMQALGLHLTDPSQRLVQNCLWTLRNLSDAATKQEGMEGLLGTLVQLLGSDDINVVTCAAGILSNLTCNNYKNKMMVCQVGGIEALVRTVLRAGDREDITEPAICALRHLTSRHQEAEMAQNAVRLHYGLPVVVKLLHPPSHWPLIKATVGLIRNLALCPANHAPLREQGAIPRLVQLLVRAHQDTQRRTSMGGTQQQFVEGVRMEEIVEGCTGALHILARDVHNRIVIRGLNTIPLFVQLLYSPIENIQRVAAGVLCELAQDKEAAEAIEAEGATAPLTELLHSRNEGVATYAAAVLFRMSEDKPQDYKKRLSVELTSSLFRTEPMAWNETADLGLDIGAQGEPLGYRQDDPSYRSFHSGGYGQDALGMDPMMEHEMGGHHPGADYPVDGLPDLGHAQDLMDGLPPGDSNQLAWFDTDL

CHI Log D procedure = assay type: physicochemical; conditions: for chromatographic logD: pH 7.4, CHI Log D; for CHI Log D: pH 7.4
[2] = fluorescence polarization, read-out: beta-Catenin FP IC50
[3] = fluorescence polarization, beta-catenin, read-out: FP EC50

Row | Compound | IC50 [1, 2] | chromatographic logD (CHI Log D procedure) | IC50 [1, 3] | IC50 ([1]; read-out: beta-Catenin FP IC50) | CHI Log D (CHI Log D procedure) | IC50 ([1]; Table E2-1, read-out: beta-Catenin FP IC50)
1 | CC[C@H](C)[C@@H]1NC(=O)[C@H](CC(=O)O)NC(=O)[C@]2(CC=CCCCC3(CCCC=CCCCCCC[C@@](C)(C(=O)N[C@@H](Cc4ccccc4)C(=O)N[C@@H](Cc4csc5ccccc45)C(=O)N[C@@H](CCC(N)=O)C(N)=O)NC(=O)[C@H](CCC(N)=O)NC(=O)[C@H](Cc4ccccc4)NC(=O)[C@H](C)NC(=O)[C@H](C)NC(=O)[C@H](CCC(=O)O)NC(=O)[C@H](CC(=O)O)NC3=O)NC1=O)CCCN2C(=O)CCc1ccccn1 (stereo partly drawn) [I-602, 2PyPrpc-PL3-Asp-Ile-B5-Asp-Glu-Ala-Ala-Phe-Gln-S8-Phe-BztA-Gln-NH2] | 3.15 µM | 3.15 |  |  |  | 
2 | CC(=O)N1CCC[C@]12CC=CCCCC1(CCCC=CCCCCCC[C@@](C)(C(=O)N[C@@H](Cc3ccc(F)cc3)C(=O)N[C@@H](Cc3c[nH]c4ccccc34)C(=O)N[C@@H](CCC(N)=O)C(N)=O)NC(=O)[C@H](C(C)C)NC(=O)[C@H](Cc3ccccc3)NC(=O)[C@H](C)NC(=O)[C@H](C)NC(=O)[C@H](CC(=O)O)NC(=O)[C@H](CC(=O)O)NC1=O)NC(=O)[C@H](C)NC(=O)[C@H](CC(=O)O)NC2=O (stereo partly drawn) [I-261, Ac-PL3-Asp-Ala-B5-Asp-Asp-Ala-Ala-Phe-Val-S8-4FF-Trp-Gln-NH2] |  | 2.01 |  |  |  | 5 µM
3 | CC(=O)N1CCC[C@]12CC=CCCCC1(CCCC=CCCCCCC[C@@](C)(C(=O)N[C@@H](Cc3cccc(F)c3)C(=O)N[C@@H](Cc3csc4ccccc34)C(=O)N[C@@H](CCC(N)=O)C(N)=O)NC(=O)[C@H](CCC(N)=O)NC(=O)[C@H](Cc3cccs3)NC(=O)[C@H](C)NC(=O)[C@H](C)NC(=O)[C@H](CCC(=O)O)NC(=O)[C@H](CC(=O)O)NC1=O)NC(=O)[C@H](C)NC(=O)[C@H](CC(=O)O)NC2=O (stereo partly drawn) [I-401, Ac-PL3-Asp-Ala-B5-Asp-Glu-Ala-Ala-2Thi-Gln-S8-3FF-BztA-Gln-NH2] | 0.134 µM | 2.28 |  |  |  | 
4 | CC(=O)N1CCC[C@]12CC=CCCCC1(CCCC=CCCCCCC[C@@](C)(C(=O)N[C@@H](Cc3cccc(F)c3)C(=O)N[C@@H](Cc3csc4ccccc34)C(=O)N[C@@H](CCC(N)=O)C(N)=O)NC(=O)[C@H](C(C)C)NC(=O)[C@H](Cc3ccccc3)NC(=O)[C@H](C)NC(=O)[C@H](C)NC(=O)[C@H](Cc3cn(C)cn3)NC(=O)[C@H](CC(=O)O)NC1=O)NC(=O)[C@H](C)NC(=O)[C@H](CC(=O)O)NC2=O (stereo partly drawn) [I-403, Ac-PL3-Asp-Ala-B5-Asp-1meH-Ala-Ala-Phe-Val-S8-3FF-BztA-Gln-NH2] | 2.13 µM | 2.87 |  |  |  | 

Second part, the compound after the results:

Row | IC50 [1, 2] | chromatographic logD (CHI Log D procedure) | IC50 [1, 3] | IC50 ([1]; read-out: beta-Catenin FP IC50) | CHI Log D (CHI Log D procedure) | IC50 ([1]; Table E2-1, read-out: beta-Catenin FP IC50) | Compound
5 |  |  | 1.08 µM | 1.08 µM | 2.104 |  | CC(=O)N1CCC[C@]12CC=CCCCC1(CCCC=CCCCOC(=O)N3CC[C@@](C(=O)N[C@@H](Cc4ccsc4)C(=O)N[C@@H](Cc4csc5ccccc45)C(=O)N[C@@H](C)C(N)=O)(C3)NC(=O)[C@H](CC(N)=O)NC(=O)[C@H](Cc3ccccc3)NC(=O)[C@H](C)NC(=O)[C@H](C)NC(=O)[C@H](CN(CC(=O)O)CC(F)(F)F)NC(=O)[C@H](CC(=O)O)NC1=O)NC(=O)[C@H](CC(C)(C)C)NC(=O)[C@H](CC(=O)O)NC2=O (stereo partly drawn) [I-945, Ac-PL3-Asp-Npg-B5-Asp-TfeGA-Ala-Ala-Phe-Asn-PyrS2-3Thi-BztA-Ala-NH2]
6 |  |  | 0.448 µM | 0.448 µM | 2.049 |  | CC(=O)N1CCC[C@]12CC=CCCCC1(CCCC=CCCCOC(=O)N3CC[C@@](C(=O)N[C@@H](Cc4ccccc4Cl)C(=O)N[C@@H](Cc4csc5ccccc45)C(=O)N[C@@H](CCC(N)=O)C(N)=O)(C3)NC(=O)[C@H](CC(C)C)NC(=O)[C@H](Cc3ccccc3)NC(=O)[C@H](C)NC(=O)[C@H](C)NC(=O)[C@H](CC(=O)O)NC(=O)[C@H](CC(=O)O)NC1=O)NC(=O)[C@H](CC1CCCCC1)NC(=O)[C@H](CC(=O)O)NC2=O (stereo partly drawn) [I-1076, Ac-PL3-Asp-Cha-B5-Asp-Asp-Ala-Ala-Phe-Leu-PyrS2-2C1F-BztA-Gln-NH2]
